The results in this text go back to US20240174690A1, “ANNULATED 2-AMINO-3-CYANO THIOPHENES AND DERIVATIVES FOR THE TREATMENT OF CANCER” (BOEHRINGER INGELHEIM INTERNATIONAL GMBH, priority 2021, published 2024).

In brackets after ≈: the same amount, converted by molar mass. Read-outs that look alike come from different tables or passages of the source. Where only a bound is given, the exact number is not on record here.

Series [1] relates to KRAS G12C-dependent Ba/F3 cells. Nature of the series: Ba/F3 proliferation assay, KRAS G12C. Type of series: cell-based. The settings on record: Mus musculus, BaF3, 72 h, AlamarBlue. In short, it runs like this:
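Cells: murine Ba/F3 transduced with mutant KRAS by retrovirus, selected with 1 μg/mL puromycin, then weaned off IL-3. Compound exposure in duplicate, followed by AlamarBlue viability staining and curve fitting.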

Series [2] deals with NCI-H358 cells. Nature of the series: NCI-H358 CTG proliferation assay (120 h) (NSCLC, G12C). It is filed as cell-based, human. The conditions noted are these: Homo sapiens, assay 2, CTG, read-out: H358 (assay 2) IC50. A digest of the protocol: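 IC50 values derive from four-parameter nonlinear regression of CellTiter-Glo viability (RLU relative to DMSO wells) after 120 h of exposure. Cells were plated in RPMI-1640 + 10% FCS at 2000 per well (assay 1) or 200 per well (assay 2). Untreated cells were measured at compound addition as T0.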

The nature of series [3]: Solubility measurement (DMSO solution method), McIlvaine buffer pH 4.5 or 6.8. Type of series: physicochemical. The conditions noted are these: aqueous buffer, kinetic from dmso stock, DMSO stock diluted to 250 μM, 24 h shaking at ambient temperature. A digest of the protocol:
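Filtrate concentration by LC-UV, calibrated to a known-concentration reference dissolved completely in acetonitrile/water (1:1). Samples came from 250 µM final dilutions of DMSO stock in pH 4.5 or 6.8 McIlvaine buffer, shaken 24 h at ambient temperature, then filtered.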

A short description of series [4]: Caco-2 assay (permeability PappAB, PappBA, efflux ratio). It is filed as in vitro ADME. The conditions noted are these: human, Caco-2, 10 μM test compound, pH 7.4; for efflux ratio at 90 min, 10 μM: efflux ratio PappBA/PappAB, read-out: Caco ER; for Papp A→B at 90 min, 10 μM: apical to basolateral. A digest of the protocol: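 Bidirectional permeability (apical-to-basolateral and reverse) through polarized Caco-2 monolayers, BSA 0.25% on each side, 37 °C. Donor and receiver sampled at 0-90 min after 25-30 min preincubation, analysed by HPLC/MS/MS. Apparent permeabilities derived from transfer rate normalised to area and t=0 donor concentration; ER taken as PappBA over PappAB.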

[5] abbreviates: McIlvaine buffer pH 4.5, read-out: solubility pH 4.5.
The mark [6] stands for this setting: McIlvaine buffer pH 6.8, read-out: solubility pH 6.8.

For the compound `C[C@H](Oc1cc(-n2ccc(-c3cn([C@@H]4CCOC4)nn3)n2)nc(-c2noc3c2CCC[C@@]32CCCc3sc(N)c(C#N)c32)n1)[C@@H]1CCCN1C` [II-211], the IC50 in series [1] turned out to be 0.006 µM; in series [2], 0.001 µM. Moreover, the solubility at 24 h is 20 µg/mL (≈ 28.8 µM) in series [3] (setting [5]) and 4 µg/mL (≈ 5.77 µM) in series [3] (setting [6]). The efflux ratio at 90 min, 10 μM in series [4] worked out at 2.2.

As to `C[C@H](Oc1cc(N2CCNC3(COC3)C2)nc(-c2noc3c2CCC[C@@]32CCCc3sc(N)c(C#N)c32)n1)[C@@H]1C[C@@H](F)CN1C` [II-150], the results for the IC50 in series [1] and in series [2] were 0.055 µM and 0.115 µM, respectively. Besides, the solubility at 24 h in series [3] (setting [5]) is > 149 µg/mL; in series [3] (setting [6]) it was 57 µg/mL (≈ 89.8 µM). In series [4], the Papp A→B at 90 min, 10 μM amounted to 2.5 ×10⁻⁶ cm/s. The efflux ratio at 90 min, 10 μM in series [4] was determined as 11.6.

Turning to `CO[C@H]1CCN(C)[C@@H]1[C@H](C)Oc1cc(N2CCNC3(CC3)C2)nc(-c2noc3c2CCC[C@@]32CCCc3sc(N)c(C#N)c32)n1` [II-184], the IC50 in series [1] is 0.098 µM; in series [2], 0.095 µM. Also, the figures for the solubility at 24 h in series [3] (setting [5]) and in series [3] (setting [6]) were > 158 µg/mL and > 147 µg/mL, respectively. For the same compound, the efflux ratio at 90 min, 10 μM in series [4] worked out at 2.3.

Take `C[C@H](Oc1cc(-n2ccc(-c3cn([C@H]4CCOC4)nn3)n2)nc(-c2noc3c2CCC[C@@]32CCCc3sc(N)c(C#N)c32)n1)[C@@H]1CCCN1C` [II-212]: the IC50 came to 0.002 µM in series [1] and 0.001 µM in series [2]. The solubility at 24 h in series [3] (setting [5]) was 16 µg/mL (≈ 23.1 µM); in series [3] (setting [6]), < 1 µg/mL. The efflux ratio at 90 min, 10 μM in series [4] stood at 2.9.

Regarding `C[C@H](Oc1cc(-n2cc3ccn(C4CCOCC4)c(=O)c3n2)nc(-c2noc3c2CCC[C@@]32CCCc3sc(N)c(C#N)c32)n1)[C@@H]1CCCN1C` [II-206], the results for the IC50 in series [1] and in series [2] were 0.007 µM and 0.004 µM, respectively. Further, the values for the solubility at 24 h in series [3] (setting [5]) and in series [3] (setting [6]) were 17 µg/mL (≈ 24 µM) and 2 µg/mL (≈ 2.83 µM), respectively. Also, in series [4], the efflux ratio at 90 min, 10 μM is 16.8.

Consider `C[C@H](Oc1cc(-n2cc(-c3cncs3)nn2)nc(-c2noc3c2CCC[C@@]32CCCc3sc(N)c(C#N)c32)n1)[C@@H]1CCCN1C` [II-125], for which the figures for the IC50 in series [1] and in series [2] were 0.017 µM and 0.255 µM, respectively. The solubility at 24 h in series [3] (setting [5]) and in series [3] (setting [6]) was < 1 µg/mL in each case. In series [4], the efflux ratio at 90 min, 10 μM turned out to be 1.3.

As for `C[C@H](Oc1cc(-c2ccn(C[C@H]3CCOC3)n2)nc(-c2noc3c2CCC[C@@]32CCCc3sc(N)c(C#N)c32)n1)[C@@H]1CCCN1C` [II-129], the IC50 came out at 0.011 µM in series [1] and 0.295 µM in series [2]. Besides, the solubility at 24 h in series [3] (setting [5]) was > 130 µg/mL; in series [3] (setting [6]), 15 µg/mL (≈ 23.4 µM). Further, the Papp A→B at 90 min, 10 μM in series [4] was 4.2 ×10⁻⁶ cm/s. The efflux ratio at 90 min, 10 μM in series [4] came out at 5.2.

`CC(C)N1CCCN(c2cc(-n3ccnc3)nc(-c3noc4c3CCC[C@@]43CCCc4sc(N)c(C#N)c43)n2)[C@@H](C)C1` [II-169]: the IC50 in series [1] came out at 0.107 µM; in series [2] it was 0.595 µM. Besides, the figures for the solubility at 24 h in series [3] (setting [5]) and in series [3] (setting [6]) were > 124 µg/mL and 13 µg/mL (≈ 22.3 µM), respectively. The efflux ratio at 90 min, 10 μM in series [4] came out at 9.6.

Take `CO[C@@H]1C[C@@H]([C@H](C)Oc2cc(N3CCN(C)C4(CC4)C3)nc(-c3noc4c3CCC[C@@]43CCCc4sc(N)c(C#N)c43)n2)N(C)C1` [II-152]: the half-inhibitory concentration (IC50) in series [1] worked out at 1.29 µM; in series [2] it was 0.926 µM. Further, the solubility at 24 h in series [3] (setting [5]) was > 132 µg/mL; in series [3] (setting [6]), 61 µg/mL (≈ 94.6 µM). For the same compound, the Papp A→B at 90 min, 10 μM in series [4] turned out to be 3.1 ×10⁻⁶ cm/s. Further, the efflux ratio at 90 min, 10 μM in series [4] is 16.8.

Turning to `C[C@H](Oc1cc(-c2ccn([C@H]3CCOC3)n2)nc(-c2noc3c2CCC[C@@]32CCCc3sc(N)c(C#N)c32)n1)[C@@H]1CCCN1C` [II-127], the figures for the IC50 in series [1] and in series [2] were 0.013 µM and 0.4 µM, respectively. Also, the solubility at 24 h in series [3] (setting [5]) is > 127 µg/mL; in series [3] (setting [6]), 39 µg/mL (≈ 62.2 µM). Moreover, in series [4], the Papp A→B at 90 min, 10 μM is 5.9 ×10⁻⁶ cm/s. In series [4], the efflux ratio at 90 min, 10 μM is 4.1.

In the case of `CC(C)N1CCCN(c2cc(-c3ccn(C)n3)nc(-c3noc4c3CCC[C@@]43CCCc4sc(N)c(C#N)c43)n2)[C@@H](C)C1` [II-170], the IC50 in series [1] worked out at 0.026 µM; in series [2] it was 0.623 µM. For the same compound, the figures for the solubility at 24 h in series [3] (setting [5]) and in series [3] (setting [6]) were 118 µg/mL (≈ 197 µM) and 24 µg/mL (≈ 40.1 µM), respectively. The Papp A→B at 90 min, 10 μM in series [4] was determined as 3.3 ×10⁻⁶ cm/s. In addition, in series [4], the efflux ratio at 90 min, 10 μM was determined as 7.

Turning to `C[C@H](Oc1nc(-c2noc3c2CCC[C@@]32CCCc3sc(N)c(C#N)c32)nc(N2C[C@H](C)NC3(CC3)C2)c1F)[C@@H]1C[C@@H](F)CN1C` [II-157], the IC50 was 0.244 µM in series [1] and 0.151 µM in series [2]. The values for the solubility at 24 h in series [3] (setting [5]) and in series [3] (setting [6]) were > 147 µg/mL and < 1 µg/mL, respectively. Also, the efflux ratio at 90 min, 10 μM in series [4] amounted to 0.7.

Regarding `CC(C)NC(=O)Cc1ccn(-c2cc(O[C@@H](C)[C@@H]3CCCN3C)nc(-c3noc4c3CCC[C@@]43CCCc4sc(N)c(C#N)c43)n2)n1` [II-182], the results for the IC50 in series [1] and in series [2] were 0.005 µM and 0.003 µM, respectively. For the same compound, the results for the solubility at 24 h in series [3] (setting [5]) and in series [3] (setting [6]) were > 148 µg/mL and 86 µg/mL (≈ 131 µM), respectively. For the same compound, the apical-to-basolateral permeability (Papp A→B) at 90 min, 10 μM in series [4] was 7.1 ×10⁻⁶ cm/s. Besides, the efflux ratio at 90 min, 10 μM in series [4] was found to be 5.5.

In the case of `C[C@H](Oc1nc(-c2noc3c2CCC[C@@]32CCCc3sc(N)c(C#N)c32)nc(N2CCNC3(CC3)C2)c1Cl)[C@@H]1C[C@@H](F)CN1C` [II-156], the IC50 was found to be 0.353 µM in series [1] and 0.23 µM in series [2]. Moreover, the results for the solubility at 24 h in series [3] (setting [5]) and in series [3] (setting [6]) were > 142 µg/mL and < 1 µg/mL, respectively. Besides, the efflux ratio at 90 min, 10 μM in series [4] was found to be 1.8.
